Measurements from EP4707280A1, “1,4-CINEOLE DERIVATIVE AND INTERMEDIATE THEREOF, HERBICIDE CONTAINING SAID DERIVATIVE AS ACTIVE INGREDIENT, METHOD FOR USING HERBICIDE, AND METHOD FOR PREPARING AGROCHEMICAL COMPOSITION” (HOKKO CHEMICAL INDUSTRY CO., LTD., priority 2023, dated 2024).

Assays:
Format in all cases: in vivo
[1] = tested on: Echinochloa crus-galli var. formosensis; experiment: Test Example 1: herbicidal effect test by soil application in paddy rice; settings: Echinochloa crus-galli, soil, 336 h; 120 g active ingredient per 10 ares; applied immediately after sowing, flooded pots; 14 days after application; read-out: weed inhibition rate
Procedure, shortened: (§1)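 Soil-applied test under flooded paddy conditions (~3 cm water) in a glass greenhouse. Seeds were sown shallow (0–1 cm, 30 per species), then compound was dripped in as diluted emulsifiable concentrate at 120 g a.i./10 a.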

Scirpus juncoides [2] = experiment: as above; settings: Schoenoplectiella juncoides, soil, 336 h; 120 g active ingredient per 10 ares; applied immediately after sowing, flooded pots; 14 days after application; read-out: weed inhibition rate
Procedure, shortened: as §1

Monochoria vaginalis [3] = experiment: as above; settings: Pontederia vaginalis, soil, 336 h; 120 g active ingredient per 10 ares; applied immediately after sowing, flooded pots; 14 days after application; read-out: weed inhibition rate
Protocol: Wagner pots with an area of […] were filled with paddy soil, followed by addition of water and incorporation of chemical fertilizer (N:P:K = 16:16:16), after which puddling was performed. After that, seeds of Echinochloa crus-galli var. formosensis, broad-leaved weeds (Lindernia pyxidaria and Monochoria vaginalis), and Scirpus juncoides were sown at a depth of 0 cm to 1 cm, 30 seeds each. Immediately after sowing, the pots were flooded and a water depth of approximately 3 cm was maintained. Subsequent management was conducted in a glass greenhouse. Immediately thereafter, an emulsifiable concentrate prepared according to Formulation Example 5 using the compound shown below was diluted with water, and a specified amount of the diluted solution was applied by dropper. The amount of the active ingredient to be applied was equivalent to 120 g per 10 ares.
The present test was conducted in duplicate for each chemical concentration group, and the weed inhibition rate (%) was determined 14 days after chemical application using the following formula (Math. 1). [formula]

[4] = tested on: Echinochloa crus-galli var. formosensis; experiment: Test Example 2: herbicidal effect test by application during growth period of paddy rice; settings: Echinochloa crus-galli; 120 g per 10 ares; applied seven days after sowing, flooded pots; 14 days after application; read-out: weed inhibition rate
Procedure, shortened: (§2)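 Flooded paddy pot test, greenhouse. Seeds 30/species, 0–1 cm depth, water ~3 cm. EC diluted in water, dropper-applied 7 d post-sowing at 120 g a.i./10 a. Inhibition rate (%) read 14 d after treatment; n=2.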

Monochoria vaginalis [5] = experiment: as above; settings: Pontederia vaginalis; 120 g per 10 ares; applied seven days after sowing, flooded pots; 14 days after application; read-out: weed inhibition rate
Procedure, shortened: as §2

Scirpus juncoides [6] = experiment: as above; settings: Schoenoplectiella juncoides; 120 g per 10 ares; applied seven days after sowing, flooded pots; 14 days after application; read-out: weed inhibition rate
Procedure, shortened: as §2

Digitaria ciliaris [7] = experiment: Test Example 4: herbicidal effect test by stem and leaf treatment in upland field; settings: Digitaria ciliaris; 120 g per 10 ares; sprayed seven days after sowing, upland soil; 14 days after application; read-out: weed inhibition rate
Echinochloa crus-galli [8] = experiment: as above; settings: Echinochloa crus-galli; 120 g per 10 ares; sprayed seven days after sowing, upland soil; 14 days after application; read-out: weed inhibition rate
Digitaria ciliaris [9] = experiment: Test Example 3: herbicidal effect test by soil application in upland field; settings: Digitaria ciliaris, 120 g per 10 ares, sprayed one day after sowing, 14 days after application, read-out: weed inhibition rate
Procedure, shortened: (§3)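 Pre-emergence test: seeds mixed into top 1 cm of alluvial loam upland soil in pots; emulsifiable concentrate diluted in water sprayed on soil one day after sowing at 100 L/10 a, 120 g a.i./10 a. Weed inhibition rate (%) scored at 14 days, in duplicate.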

Echinochloa crus-galli [10] = experiment: as above; settings: Echinochloa crus-galli, 120 g per 10 ares, sprayed one day after sowing, 14 days after application, read-out: weed inhibition rate
Procedure, shortened: as §3

[11] = tested on: Echinochloa crus-galli var. formosensis; experiment: Test Example 5: herbicidal effect test by soil application in paddy rice (low dose); settings: Echinochloa crus-galli, soil, 336 h; 7.5 g per 10 ares; applied immediately after sowing, flooded pots; 14 days after application; read-out: weed inhibition rate
Procedure, shortened: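 Pre-emergence paddy test: seeds sown 0–1 cm (30 each), pots flooded ~3 cm, greenhouse. EC dilution dropped into water right after sowing, 7.5 g a.i./10 a. Duplicate pots; weed inhibition rate (%) by formula, day 14.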

[12] = tested on: Echinochloa crus-galli var. formosensis; experiment: Test Example 6: herbicidal effect test by application during growth period of paddy rice (low dose); settings: Echinochloa crus-galli; 7.5 g per 10 ares; applied seven days after sowing, flooded pots; 14 days after application; read-out: weed inhibition rate
Procedure, shortened: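 Low-dose water application, 7.5 g a.i. per 10 ares, given by dropper into flooded pots (about 3 cm depth) 7 days after sowing of 30 weed seeds each at 0–1 cm. Evaluation of inhibition (%) took place 14 days later, duplicate per rate.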

Digitaria ciliaris [13] = experiment: Test Example 8: herbicidal effect test by stem and leaf treatment in upland field (low dose); settings: Digitaria ciliaris; 7.5 g per 10 ares; sprayed seven days after sowing, upland soil; 14 days after application; read-out: weed inhibition rate
Digitaria ciliaris [14] = experiment: Test Example 7: herbicidal effect test by soil application in upland field (low dose); settings: Digitaria ciliaris, 7.5 g per 10 ares, sprayed one day after sowing, 14 days after application, read-out: weed inhibition rate
Procedure, shortened: (§4)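 Read-out: weed inhibition rate (%) at 14 d post-treatment, duplicate pots per concentration. Seeds sown in the top 1 cm of upland alluvial loam; emulsifiable concentrate diluted in water and sprayed on the soil surface 1 d after sowing at 7.5 g a.i./10 a (100 L/10 a spray volume).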

Echinochloa crus-galli [15] = experiment: as above; settings: Echinochloa crus-galli, 7.5 g per 10 ares, sprayed one day after sowing, 14 days after application, read-out: weed inhibition rate
Procedure, shortened: as §4

Echinochloa crus-galli [16] = experiment: Test Example 8: herbicidal effect test by stem and leaf treatment in upland field (low dose); settings: Echinochloa crus-galli; 7.5 g per 10 ares; sprayed seven days after sowing, upland soil; 14 days after application; read-out: weed inhibition rate

Cc1ccccc1CO[C@H]1C[C@]2(C)O[C@@]1(C(C)C)C[C@H]2OCc1ccccc1C [1-597, (1S,2R,4R,5S)-1-methyl-2,5-bis[(2-methylphenyl)methoxy]-4-isopropyl-7-oxabicyclo[2.2.1]heptane]
≥ 80%: pest or weed control at 1200 g/ha [1] | pest or weed control at 1200 g/ha (Scirpus juncoides [2]) | pest or weed control at 1200 g/ha (Monochoria vaginalis [3]) | inhibition at 1200 g/ha [4] | inhibition at 1200 g/ha (Monochoria vaginalis [5]) | inhibition at 1200 g/ha (Scirpus juncoides [6]) | inhibition at 1200 g/ha (Digitaria ciliaris [7]) | inhibition at 1200 g/ha (Echinochloa crus-galli [8])

CCC[C@@H]1C[C@]2(C)O[C@@]1(C(C)C)C[C@H]2OCc1ccccc1F [1-914, (1S,2R,4R,5R)-2-[(2-fluorophenyl)methoxy]-1-methyl-4-isopropyl-5-propyl-7-oxabicyclo[2.2.1]heptane]
≥ 80%: pest or weed control at 1200 g/ha [1] | pest or weed control at 1200 g/ha (Scirpus juncoides [2]) | pest or weed control at 1200 g/ha (Monochoria vaginalis [3]) | inhibition at 1200 g/ha [4] | inhibition at 1200 g/ha (Monochoria vaginalis [5]) | inhibition at 1200 g/ha (Scirpus juncoides [6]) | inhibition at 1200 g/ha (Digitaria ciliaris [9]) | inhibition at 1200 g/ha (Echinochloa crus-galli [10]) | inhibition at 1200 g/ha (Digitaria ciliaris [7]) | inhibition at 1200 g/ha (Echinochloa crus-galli [8]) | inhibition at 75 g/ha [11] | inhibition at 75 g/ha [12]

CC(C)[C@]12C[C@@H](OCc3ccccc3F)[C@](C)(CC1C1CCCC1)O2 (stereo partly drawn) [1-920, (1R,4S,5R)-2-cyclopentyl-5-[(2-fluorobenzyl)oxy]-1-isopropyl-4-methyl-7-oxabicyclo[2.2.1]heptane]
≥ 80%: pest or weed control at 1200 g/ha [1] | pest or weed control at 1200 g/ha (Scirpus juncoides [2]) | pest or weed control at 1200 g/ha (Monochoria vaginalis [3]) | inhibition at 1200 g/ha [4] | inhibition at 1200 g/ha (Monochoria vaginalis [5]) | inhibition at 1200 g/ha (Scirpus juncoides [6]) | inhibition at 1200 g/ha (Digitaria ciliaris [7]) | inhibition at 1200 g/ha (Echinochloa crus-galli [8]) | inhibition at 75 g/ha [11] | inhibition at 75 g/ha [12]

CC(C)[C@]12C[C@@H](OCc3ccccc3F)[C@](C)(CC1CCc1ccccc1)O2 (stereo partly drawn) [1-929, (1S,2R,4R)-2-((2-fluorobenzyl)oxy)-4-isopropyl-1-methyl-5-phenethyl-7-oxabicyclo[2.2.1]heptane]
≥ 80%: pest or weed control at 1200 g/ha [1] | pest or weed control at 1200 g/ha (Scirpus juncoides [2]) | pest or weed control at 1200 g/ha (Monochoria vaginalis [3]) | inhibition at 1200 g/ha [4] | inhibition at 1200 g/ha (Monochoria vaginalis [5]) | inhibition at 1200 g/ha (Digitaria ciliaris [9]) | inhibition at 1200 g/ha (Echinochloa crus-galli [10]) | inhibition at 1200 g/ha (Digitaria ciliaris [7]) | inhibition at 1200 g/ha (Echinochloa crus-galli [8]) | inhibition at 75 g/ha [11] | inhibition at 75 g/ha [12] | inhibition at 75 g/ha (Digitaria ciliaris [13])

CC(C)[C@]12C[C@@H](OCc3ccccc3F)[C@](C)(CC13OCCO3)O2 [1-936, (1R,4S,5R)-5-((2-fluorobenzyl)oxy)-1-isopropyl-4-methyl-7-oxaspiro[bicyclo[2.2.1]heptane-2,2'-[1,3]dioxolane]]
≥ 80%: pest or weed control at 1200 g/ha [1] | pest or weed control at 1200 g/ha (Scirpus juncoides [2]) | pest or weed control at 1200 g/ha (Monochoria vaginalis [3]) | inhibition at 1200 g/ha [4] | inhibition at 1200 g/ha (Digitaria ciliaris [9]) | inhibition at 1200 g/ha (Echinochloa crus-galli [10]) | inhibition at 1200 g/ha (Echinochloa crus-galli [8])

CC(C)[C@]12C[C@@H](OCc3ccccc3)[C@](C)(CC1=O)O2 [2-1, (1R,4S,5R)-5-(benzyloxy)-1-isopropyl-4-methyl-7-oxabicyclo[2.2.1]heptan-2-one]
≥ 80%: pest or weed control at 1200 g/ha [1] | pest or weed control at 1200 g/ha (Monochoria vaginalis [3]) | inhibition at 1200 g/ha [4] | inhibition at 1200 g/ha (Monochoria vaginalis [5]) | inhibition at 1200 g/ha (Digitaria ciliaris [9]) | inhibition at 1200 g/ha (Echinochloa crus-galli [10]) | inhibition at 1200 g/ha (Digitaria ciliaris [7]) | inhibition at 1200 g/ha (Echinochloa crus-galli [8])

CC(C)[C@]12C[C@@H](OCc3ccccc3C#N)[C@](C)(CC1=O)O2 [2-354, 2-((((1S,2R,4R)-4-isopropyl-1-methyl-5-oxo-7-oxabicyclo[2.2.1]heptan-2-yl)oxy)methyl)benzonitrile]
≥ 80%: pest or weed control at 1200 g/ha [1] | pest or weed control at 1200 g/ha (Scirpus juncoides [2]) | pest or weed control at 1200 g/ha (Monochoria vaginalis [3]) | inhibition at 1200 g/ha [4] | inhibition at 1200 g/ha (Scirpus juncoides [6]) | inhibition at 1200 g/ha (Digitaria ciliaris [9]) | inhibition at 1200 g/ha (Echinochloa crus-galli [10]) | inhibition at 1200 g/ha (Digitaria ciliaris [7]) | inhibition at 1200 g/ha (Echinochloa crus-galli [8]) | inhibition at 75 g/ha [11] | inhibition at 75 g/ha [12] | inhibition at 75 g/ha (Digitaria ciliaris [14]) | inhibition at 75 g/ha (Echinochloa crus-galli [15])

Cc1ccccc1CO[C@@H]1C[C@]2(C(C)C)O[C@@]1(C)C=C2c1ccccc1 [3-175, (1R,4S,5R)-1-isopropyl-4-methyl-5-((2-methylbenzyl)oxy)-2-phenyl-7-oxabicyclo[2.2.1]hept-2-ene]
≥ 80%: pest or weed control at 1200 g/ha [1] | pest or weed control at 1200 g/ha (Monochoria vaginalis [3]) | inhibition at 1200 g/ha [4] | inhibition at 1200 g/ha (Monochoria vaginalis [5]) | inhibition at 1200 g/ha (Digitaria ciliaris [9]) | inhibition at 1200 g/ha (Echinochloa crus-galli [10]) | inhibition at 1200 g/ha (Digitaria ciliaris [7]) | inhibition at 1200 g/ha (Echinochloa crus-galli [8])

CC(C)[C@]12C[C@@H](OCc3ccccc3F)[C@](C)(C=C1c1ccccc1)O2 [3-177, (1R,4S,5R)-5-((2-fluorobenzyl)oxy)-1-isopropyl-4-methyl-2-phenyl-7-oxabicyclo[2.2.1]hept-2-ene]
≥ 80%: pest or weed control at 1200 g/ha [1] | pest or weed control at 1200 g/ha (Scirpus juncoides [2]) | pest or weed control at 1200 g/ha (Monochoria vaginalis [3]) | inhibition at 1200 g/ha [4] | inhibition at 1200 g/ha (Monochoria vaginalis [5]) | inhibition at 1200 g/ha (Scirpus juncoides [6]) | inhibition at 1200 g/ha (Digitaria ciliaris [9]) | inhibition at 1200 g/ha (Echinochloa crus-galli [10]) | inhibition at 1200 g/ha (Digitaria ciliaris [7]) | inhibition at 1200 g/ha (Echinochloa crus-galli [8]) | inhibition at 75 g/ha [12]

CC(C)C12C=CC(C)(O1)C(OCc1ccsc1)C2 (stereo not shown) [3-757, 1-isopropyl-4-methyl-5-(3-thienylmethoxy)-7-oxabicyclo[2.2.1]hept-2-ene]
≥ 80%: pest or weed control at 1200 g/ha [1] | pest or weed control at 1200 g/ha (Scirpus juncoides [2]) | inhibition at 1200 g/ha [4] | inhibition at 1200 g/ha (Scirpus juncoides [6]) | inhibition at 1200 g/ha (Digitaria ciliaris [9]) | inhibition at 1200 g/ha (Echinochloa crus-galli [10]) | inhibition at 1200 g/ha (Digitaria ciliaris [7]) | inhibition at 1200 g/ha (Echinochloa crus-galli [8]) | inhibition at 75 g/ha [11] | inhibition at 75 g/ha [12] | inhibition at 75 g/ha (Digitaria ciliaris [14]) | inhibition at 75 g/ha (Echinochloa crus-galli [15]) | inhibition at 75 g/ha (Digitaria ciliaris [13]) | inhibition at 75 g/ha (Echinochloa crus-galli [16])
